Biological target: T1, hSCN3A sodium channels (Homo sapiens, UniProt Q9NY46)
T1 construct: expressed in transfected cells
Assay: hSCN3A electrophysiology, Ionworks Quattro automated platform (Table C)
Type: cell-based
Conditions: for inhibition at 3 µM: read-out: SCN3A % INHIB HTS IWQ 3 μM; for inhibition at 10 µM: read-out: SCN3A % INHIB HTS IWQ 10 μM
Protocol: Human Embryonic Kidney (HEK) cells were transfected with an hSCN3A construct using lipofectamine reagent (Invitrogen), using standard techniques. […] Clones were screened for expression using the whole-cell voltage-clamp technique.
HEK cells stably transfected with hSCN3A were maintained in DMEM medium supplemented with 10% heat-inactivated fetal bovine serum and 400 μg/ml G418 sulfate in an incubator at 37° C. with a humidified atmosphere of 10% CO2. […] For electrophysiological studies, cells were removed from the culture flask by brief trypsinization and replated at low density onto glass cover slips. Cells were typically used for electrophysiological experiments within 24 to 72 h after plating.
Electrophysiological assays were also conducted using the Ionworks Quattro automated electrophysiological platform (Molecular Devices Corp) (Table C). Intracellular and extracellular solutions were as described above with the following changes, 100 μg/ml amphotericin was added to the intracellular solution to perforate the membrane and allow electrical access to the cells. hSCN3A cells were grown and harvested as for PatchXpress and cells were resuspended in extracellular solution at a concentration of 3-4×10^6 cells/ml. The onboard liquid handling facility of the Ionworks Quattro was used for dispensing cells and application of test compounds. A voltage protocol was then applied that comprised of a voltage step to fully inactivate the sodium channels, followed by a brief hyperpolarized recovery period to allow partial recovery from inactivation for unblocked sodium channels, followed by a test depolarized voltage step to assess magnitude of inhibition by test compound. Compound effect was determined based on current amplitude difference between the pre-compound addition and post-compound addition scans.

T1 sequence (Q9NY46 whole entry): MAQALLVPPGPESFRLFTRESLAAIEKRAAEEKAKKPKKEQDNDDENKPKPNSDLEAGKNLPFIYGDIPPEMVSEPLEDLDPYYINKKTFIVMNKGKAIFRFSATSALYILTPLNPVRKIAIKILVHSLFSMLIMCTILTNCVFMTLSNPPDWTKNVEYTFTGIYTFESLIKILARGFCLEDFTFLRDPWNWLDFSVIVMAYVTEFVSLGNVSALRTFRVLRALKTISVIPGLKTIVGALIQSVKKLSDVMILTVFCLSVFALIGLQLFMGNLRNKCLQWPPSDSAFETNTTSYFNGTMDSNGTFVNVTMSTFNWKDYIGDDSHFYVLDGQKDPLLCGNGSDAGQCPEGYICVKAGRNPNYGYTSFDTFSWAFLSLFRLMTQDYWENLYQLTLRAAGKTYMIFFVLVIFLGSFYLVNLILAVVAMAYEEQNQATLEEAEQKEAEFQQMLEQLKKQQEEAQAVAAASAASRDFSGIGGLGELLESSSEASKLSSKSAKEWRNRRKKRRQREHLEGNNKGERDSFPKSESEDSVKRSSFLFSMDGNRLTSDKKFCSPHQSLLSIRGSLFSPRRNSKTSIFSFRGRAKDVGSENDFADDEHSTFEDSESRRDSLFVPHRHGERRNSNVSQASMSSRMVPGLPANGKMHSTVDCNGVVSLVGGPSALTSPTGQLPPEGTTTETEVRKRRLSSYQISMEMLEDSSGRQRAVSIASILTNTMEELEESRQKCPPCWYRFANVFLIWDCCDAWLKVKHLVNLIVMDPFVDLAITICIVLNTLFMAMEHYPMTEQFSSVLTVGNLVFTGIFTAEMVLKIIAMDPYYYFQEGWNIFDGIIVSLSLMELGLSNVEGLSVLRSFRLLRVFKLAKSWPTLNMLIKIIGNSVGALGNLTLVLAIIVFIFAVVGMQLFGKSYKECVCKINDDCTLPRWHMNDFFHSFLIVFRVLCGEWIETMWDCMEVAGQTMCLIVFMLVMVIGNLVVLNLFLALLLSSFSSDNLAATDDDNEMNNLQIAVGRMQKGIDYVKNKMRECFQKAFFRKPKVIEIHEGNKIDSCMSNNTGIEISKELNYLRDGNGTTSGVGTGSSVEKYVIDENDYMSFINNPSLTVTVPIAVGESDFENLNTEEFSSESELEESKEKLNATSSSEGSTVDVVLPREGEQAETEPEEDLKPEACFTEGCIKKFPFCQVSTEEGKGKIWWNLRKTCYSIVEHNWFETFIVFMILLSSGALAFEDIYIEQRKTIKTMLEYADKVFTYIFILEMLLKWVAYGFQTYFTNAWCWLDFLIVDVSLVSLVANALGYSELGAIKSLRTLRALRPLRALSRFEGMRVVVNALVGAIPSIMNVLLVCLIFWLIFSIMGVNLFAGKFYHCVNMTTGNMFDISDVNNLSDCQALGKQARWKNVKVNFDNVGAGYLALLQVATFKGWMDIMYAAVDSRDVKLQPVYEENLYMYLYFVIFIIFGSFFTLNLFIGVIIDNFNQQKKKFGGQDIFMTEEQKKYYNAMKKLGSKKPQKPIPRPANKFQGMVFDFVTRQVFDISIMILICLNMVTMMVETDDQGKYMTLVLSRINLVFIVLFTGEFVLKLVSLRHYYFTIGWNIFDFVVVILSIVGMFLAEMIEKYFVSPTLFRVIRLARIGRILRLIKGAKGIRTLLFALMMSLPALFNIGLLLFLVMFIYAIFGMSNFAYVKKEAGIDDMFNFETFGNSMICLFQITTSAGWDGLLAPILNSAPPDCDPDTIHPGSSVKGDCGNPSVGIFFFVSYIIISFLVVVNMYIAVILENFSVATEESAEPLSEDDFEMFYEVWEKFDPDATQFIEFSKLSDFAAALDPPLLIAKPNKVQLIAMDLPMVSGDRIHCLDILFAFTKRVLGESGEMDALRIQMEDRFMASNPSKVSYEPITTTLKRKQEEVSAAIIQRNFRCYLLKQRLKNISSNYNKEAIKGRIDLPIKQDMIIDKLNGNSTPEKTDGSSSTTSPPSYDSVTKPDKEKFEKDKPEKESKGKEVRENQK

Row | SMILES | inhibition at 3 µM (3 μM compound) [%] | inhibition at 10 µM (10 μM compound) [%] | other results
1 | O=C(c1ccc(S(=O)(=O)Nc2nccs2)cc1)N1CCCO[C@H]1Cc1ccccc1 [Example 214, 4-{[(2S)-2-benzyl-1,3-oxazinan-3-yl]carbonyl}-N-1,3-thiazol-2-yl-benzenesulfonamide] | 9.25 | 4.51 | –
2 | COc1ccc(C2CC(CO)CN2C(=O)c2ccc(S(=O)(=O)Nc3nccs3)cc2)cc1 (stereo not shown) [Example 280, 4-{[4-(Hydroxymethyl)-2-(4-methoxyphenyl)pyrrolidin-1-yl]carbonyl}-N-1,3-thiazol-2-yl-benzenesulfonamide] | 13.2 | 17 | –
3 | O=C(c1ccc(S(=O)(=O)Nc2nccs2)cc1)N1CCCC1Cc1ccccc1F (stereo not shown) [Example 233, 4-{[2-(2-Fluorobenzyl)pyrrolidin-1-yl]carbonyl}-N-1,3-thiazol-2-yl-benzenesulfonamide] | 18.5 | 15.9 | –
4 | O=C(c1ccc(S(=O)(=O)Nc2nccs2)cc1)N(Cc1ccccc1)[C@@H](CO)c1ccccc1 [Example 208, N-benzyl-N-[(1R)-2-hydroxy-1-phenylethyl]-4-[(1,3-thiazol-2-yl-amino)sulfonyl]benzamide] | 3.57 | -14.2 | –
5 | O=C(c1ccc(S(=O)(=O)Nc2nccs2)cc1)N1CCCC(Cc2ncccn2)C1 (stereo not shown) [Example 237, 4-{[3-(Pyrimidin-2-ylmethyl)piperidin-1-yl]carbonyl}-N-1,3-thiazol-2-yl-benzenesulfonamide] | 24.7 | 17.6 | –
6 | O=C(c1ccc(S(=O)(=O)Nc2nccs2)cc1)N1CCCCC1Cc1ccccn1 (stereo not shown) [Example 244, 4-{[2-(Pyridin-2-ylmethyl)piperidin-1-yl]carbonyl}-N-1,3-thiazol-2-yl-benzenesulfonamide] | 14.2 | 21.9 | –
7 | O=C(NC(CO)c1ccccc1)c1ccc(S(=O)(=O)Nc2nccs2)cc1 (stereo not shown) [Example 57, N-(2-hydroxy-1-phenylethyl)-4-[(1,3-thiazol-2-ylamino)sulfonyl]benzamide] | 25.2 | 47.8 | –
8 | C[C@@H](c1ccccc1)N(C)C(=O)c1ccc(S(=O)(=O)Nc2nccs2)cc1 [Example 256, N-methyl-N-[(1S)-1-phenylethyl]-4-[(1,3-thiazol-2-yl-amino)sulfonyl]benzamide] | 1.49 | 6.44 | –
9 | COc1ccc(CC2CCCN2C(=O)c2ccc(S(=O)(=O)Nc3nccs3)cc2)cc1 (stereo not shown) [Example 206, 4-{[2-(4-Methoxybenzyl)pyrrolidin-1-yl]carbonyl}-N-1,3-thiazol-2-yl-benzenesulfonamide] | 4.17 | 16.7 | –
10 | O=C(c1ccc(S(=O)(=O)Nc2nccs2)cc1)N1CCCC1c1ccccn1 (stereo not shown) [Example 283, 4-[(2-Pyridin-2-ylpyrrolidin-1-yl)carbonyl]-N-1,3-thiazol-2-ylbenzenesulfonamide] | -1.98 | 0.98 | –
11 | Cc1ccc(CNC(=O)c2ccc(S(=O)(=O)Nc3nccs3)cc2)cc1 [Example 98, N-(4-methylbenzyl)-4-[(1,3-thiazol-2-ylamino)sulfonyl]benzamide] | 28.1 | 36.6 | –
12 | COc1ccccc1CC1(NC(=O)c2ccc(S(=O)(=O)Nc3nccs3)cc2)CC1 [Example 157, N-[1-(2-methoxybenzyl)cyclopropyl]-4-[(1,3-thiazol-2-ylamino)sulfonyl]benzamide] | 11.3 | 15.3 | –
13 | O=C(c1ccc(S(=O)(=O)Nc2nccs2)cc1)N1CCCC1c1ccccc1F (stereo not shown) [Example 281, 4-{[2-(2-Fluorophenyl)pyrrolidin-1-yl]carbonyl}-N-1,3-thiazol-2-yl-benzenesulfonamide] | 10.2 | 28.9 | –
14 | O=C(c1ccc(S(=O)(=O)Nc2nccs2)cc1)N1CCCCC1c1ccccn1 (stereo not shown) [Example 238, 4-[(2-Pyridin-2-ylpiperidin-1-yl)carbonyl]-N-1,3-thiazol-2-yl-benzenesulfonamide] | 3.68 | 9.77 | –
15 | Cc1cccc(CC2CCCCN2C(=O)c2ccc(S(=O)(=O)Nc3nccs3)cc2)n1 (stereo not shown) [Example 242] | – | – | SCN3A % INHIB HTS IWQ 3 μM (3 μM compound): 13.78%; SCN3A % INHIB HTS IWQ 10 μM (10 μM compound): 8.48%
16 | O=C(NCc1cccc(Cl)c1)c1ccc(S(=O)(=O)Nc2nccs2)cc1 [Example 152, N-(3-chlorobenzyl)-4-[(1,3-thiazol-2-ylamino)sulfonyl]benzamide] | 42.2 | 56.3 | –

Row | SMILES | inhibition at 3 µM (3 μM compound) [%] | inhibition at 10 µM (10 μM compound) [%] | other results
17 | O=C(c1ccc(S(=O)(=O)Nc2nccs2)cc1)N1CCCC(OCc2ccccc2)C1 (stereo not shown) [Example 211, 4-{[3-(benzyloxy)piperidin-1-yl]carbonyl}-N-1,3-thiazol-2-yl-benzenesulfonamide] | 2.5 | 10.1 | –
18 | O=C(NC1(c2cccc(Cl)c2)CC1)c1ccc(S(=O)(=O)Nc2nccs2)cc1 [Example 135, N-[1-(3-chlorophenyl)cyclopropyl]-4-[(1,3-thiazol-2-ylamino)sulfonyl]benzamide] | 27.4 | 30.1 | –
19 | COc1cccc(CCNC(=O)c2ccc(S(=O)(=O)Nc3nccs3)cc2)c1 [Example 166, N-[2-(3-methoxyphenyl)ethyl]-4-[(1,3-thiazol-2-ylamino)sulfonyl]benzamide] | 30.6 | 36.3 | –
20 | O=C(c1ccccc1)C1CCCN(C(=O)c2ccc(S(=O)(=O)Nc3nccs3)cc2)C1 (stereo not shown) [Example 253, 4-[(3-Benzoylpiperidin-1-yl)carbonyl]-N-1,3-thiazol-2-yl-benzenesulfonamide] | 5.99 | 31.3 | –
21 | Cc1ncccc1OCC1CN(C(=O)c2ccc(S(=O)(=O)Nc3nccs3)cc2)CCO1 (stereo not shown) [Example 243, 4-[(2-{[(2-Methylpyridin-3-yl)oxy]methyl}morpholin-4-yl)carbonyl]-N-1,3-thiazol-2-yl-benzenesulfonamide] | 15.3 | 14.7 | –
22 | Cc1cc(CC(NC(=O)c2ccc(S(=O)(=O)Nc3nccs3)cc2)c2ccc(F)cc2)on1 (stereo not shown) [Example 156, N-[1-(4-fluorophenyl)-2-(3-methylisoxazol-5-yl)ethyl]-4-[(1,3-thiazol-2-ylamino)sulfonyl]benzamide] | 13.3 | 30.3 | –
23 | O=C(c1ccc(S(=O)(=O)Nc2nccs2)cc1)N1CCOCC(Cc2ccc(F)cn2)C1 (stereo not shown) [Example 216, 4-({6-[(5-Fluoropyridin-2-yl)methyl]-1,4-oxazepan-4-yl}carbonyl)-N-1,3-thiazol-2-yl-benzenesulfonamide] | 10.8 | 6.67 | –
24 | COCCCOC1CCCN(C(=O)c2ccc(S(=O)(=O)Nc3nccs3)cc2)C1 (stereo not shown) [Example 260, 4-{[3-(3-Methoxypropoxy)piperidin-1-yl]carbonyl}-N-1,3-thiazol-2-yl-benzenesulfonamide] | -3.05 | 10.5 | –
25 | O=C(c1ccc(S(=O)(=O)Nc2nccs2)cc1)N1CCCC(COc2ccccc2)C1 (stereo not shown) [Example 267, 4-{[3-(Phenoxymethyl)piperidin-1-yl]carbonyl}-N-1,3-thiazol-2-yl-benzenesulfonamide] | 30.1 | 23.1 | –
26 | O=C(c1ccc(S(=O)(=O)Nc2nccs2)cc1)N1CCCCC1COc1ccccc1 (stereo not shown) [Example 224, 4-{[2-(Phenoxymethyl)piperidin-1-yl]carbonyl}-N-1,3-thiazol-2-yl-benzenesulfonamide] | 3.47 | 9.34 | –
27 | O=C(NCc1ccccc1)c1ccc(S(=O)(=O)Nc2nccs2)cc1 [Example 171, N-benzyl-4-[(1,3-thiazol-2-ylamino)sulfonyl]benzamide] | 39.5 | 52.8 | –
28 | O=C(NC(c1c(F)cccc1F)C1CC1)c1ccc(S(=O)(=O)Nc2nccs2)cc1 (stereo not shown) [Example 140, N-[cyclopropyl(2,6-difluorophenyl)methyl]-4-[(1,3-thiazol-2-ylamino)sulfonyl]benzamide] | 2.34 | 18.9 | –
29 | O=C(c1ccc(S(=O)(=O)Nc2nccs2)cc1)N1CCCC(Cc2cncnc2)C1 (stereo not shown) [Example 272, 4-{[3-(Pyrimidin-5 ylmethyl)piperidin-1-yl]carbonyl}-N-1,3-thiazol-2-yl-benzenesulfonamide] | 1.88 | 8.31 | –
30 | CC(C)(NC(=O)c1ccc(S(=O)(=O)Nc2nccs2)cc1)c1cc(F)cc(F)c1 [Example 141, N-[1-(3,5-difluorophenyl)-1-methylethyl]-4-[(1,3-thiazol-2-ylamino)sulfonyl]benzamide] | 6.82 | 25 | –
31 | O=C(c1ccc(S(=O)(=O)Nc2nccs2)cc1)N1CCCC(COc2cc(F)cc(F)c2)C1 (stereo not shown) [Example 271, 4-({3-[(3,5-Difluorophenoxy)methyl]piperidin-1-yl}carbonyl)-N-1,3-thiazol-2-yl-benzenesulfonamide] | 35.8 | 41.4 | SCN3A INHIB INACT DRC EP IWQ EMAX (Emax of dose-response curve, inactivated state): 52.4; IC50 (read-out: SCN3A IWQ IC-50): 26.4 µM

Reference: patent publication US8741934B2, “Inhibitors of ion channels” (Pfizer Limited, priority 2007, dated 2014)
